Results from patent US7858349B2, “Anti-cancer compounds” (The Regents of the University of Colorado, priority 1999, dated 2010).
Like-named read-outs stand apart in the source and are kept apart here.

Columns and labels:
NSCLC strain A-549 = test: MTT assay for cell survival, NSCLC A-549 in vitro; type: cell-based, human; conditions: ED50 for killing of NSCLC strain A-549 in vitro, 4 days
PC3 PC cells = test: Inhibition of PC3 tumor growth in vivo in nude mice; parameters: species or system athymic nude mice; key to PC3 In vivo % inhib.: an IC50 value of “0” represents no detectable anti-cancer activity for a drug in a given cell line; “Stim.” indicates the observation of a stimulatory activity on the growth of the cancer cell line; conditions: percent inhibition of tumor growth in nude mice; prostate cancer; i.p. 5 mg/kg/every second day or 10 mg/kg/every fourth day
How it was run: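 Groups of 5 nude mice dosed i.p. at 10 mg/kg every fourth day or 5 mg/kg every second day, beginning 8 days after s.c. implantation of PC3 (1.5 million), A549 (1 million) or SHP-77 (2 million) cells in Matrigel; saline or DMSO-matched controls. Tumor weight at necropsy and caliper-derived volume both used to calculate inhibition.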

SCLC strain SHP-77 = test: MTT assay for cell survival, SCLC SHP-77 in vitro; type: cell-based, human; conditions: ED50 for killing of SCLC strain SHP-77 in vitro, 4 days, 0 = no detectable activity

SMILES | IC50 (NSCLC strain A-549) | PC3 In vivo % inhib. (PC3 PC cells) | IC50 (SCLC strain SHP-77; read-out: SCLC SHP-77 IC50) | IC50 (SCLC strain SHP-77; read-out: SHP-77 In vitro IC50)
O=C(C=Cc1c(F)c(F)c(F)c(F)c1F)NC(Cc1ccc(I)cc1)C(=O)N1CCN(c2ccc(Cl)cc2)CC1 (stereo not shown) [Analog M-1298, F5c-PIF-Cpp] | 21 µM | – | – | –
Cc1cc(C)c(CN2CCN(C(=O)C(Cc3ccc(I)cc3)NC(=O)C=Cc3c(F)c(F)c(F)c(F)c3F)CC2)c(C)c1 (stereo not shown) [Analog M-1334, F5c-PIF-Tmbp] | 19 µM | 50% | – | –
O=C(C=Cc1c(F)c(F)c(F)c(F)c1F)NC(Cc1ccc(I)cc1)C(=O)N1CCN(Cc2ccc(Cl)cc2)CC1 (stereo not shown) [Analog M-1310, F5c-PIF-4-Clbp] | 12 µM | Stim. | – | –
O=C(C=Cc1c(F)c(F)c(F)c(F)c1F)NC(Cc1ccc(I)cc1)C(=O)NC1CN2CCC1CC2 [Analog M-1290, F5c-PIF-(S)-(−)-Aqu] | 14 µM | – | – | –
O=C(NC(Cc1ccc(-c2ccccc2)cc1)C(=O)N1CC2CC1CN2Cc1ccccc1)C(c1ccc(Cl)cc1)c1ccc(Cl)cc1 (stereo not shown) [Analog M-1276, Bcpa-Bip-Bdbh] | 20 µM | 56% | > 60 µM | –
O=C(C=Cc1c(F)c(F)c(F)c(F)c1F)NC(Cc1ccc(I)cc1)C(=O)N1CCN(CCc2ccccc2)CC1 (stereo not shown) [Analog M-1304, F5c-PIF-Pep] | 17 µM | – | – | –
Cc1ccc(CN2CCN(C(=O)C(Cc3ccc(I)cc3)NC(=O)C=Cc3c(F)c(F)c(F)c(F)c3F)CC2)cc1 (stereo not shown) [Analog M-1332, F5c-PIF-4-Mbp] | 7.8 µM | 63% | – | –
O=C(C=Cc1c(F)c(F)c(F)c(F)c1F)NC(Cc1ccc(I)cc1)C(=O)N1CCCN(Cc2ccccc2)CC1 (stereo not shown) [Analog M-1294, F5c-PIF-Bhp] | 22 µM | 44% | – | –
O=C(C=Cc1c(F)c(F)c(F)c(F)c1F)NC(Cc1ccc(I)cc1)C(=O)N1CCN(C(c2ccccc2)c2ccc(Cl)cc2)CC1 (stereo not shown) [Analog M-1300, F5c-PIF-Cbp] | 21 µM | – | – | –
O=C(C=Cc1c(F)c(F)c(F)c(F)c1F)NC(Cc1ccc(I)cc1)C(=O)N1CCN(Cc2ccc(F)cc2)CC1 (stereo not shown) [Analog M-1322, F5c-PIF-Fbp] | 13 µM | 46% | – | –
N#Cc1ccc(N2CCN(C(=O)C(Cc3ccc(I)cc3)NC(=O)C=Cc3c(F)c(F)c(F)c(F)c3F)CC2)cc1 (stereo not shown) [Analog M-1320, F5c-PIF-4-Cypp] | 17 µM | – | – | –
O=C(C=Cc1c(F)c(F)c(F)c(F)c1F)NC(Cc1ccc(I)cc1)C(=O)N1CCN(C(c2ccc(F)cc2)c2ccc(F)cc2)CC1 (stereo not shown) [Analog M-1336, F5c-PIF-Fpmp] | 12 µM | 71% | – | –
COc1ccc2cc(C(C)C(=O)NC(Cc3ccc(OCc4c(Cl)cccc4Cl)cc3)C(=O)NC3CC(C)(C)NC(C)(C)C3)ccc2c1 (stereo not shown) [Analog M-1380, Napr-OC2Y-Atmp] | 1.6 µM | 26% | 1.7 µM | –
CC1(C)CC(NC(=O)C(Cc2ccc(-c3ccccc3)cc2)NC(=O)C(c2ccc(Cl)cc2)c2ccc(Cl)cc2)CC(C)(C)N1 (stereo not shown) [Analog M-1274, Bcpa-Bip-Atmp] | 7.3 µM | – | 2.1 µM | –
O=C(C=Cc1c(F)c(F)c(F)c(F)c1F)NC(Cc1ccc(I)cc1)C(=O)N1CCC2(CC1)OCCO2 (stereo not shown) [Analog M-1284, F5c-PIF-Dasd] | 20 µM | Stim. | 22 µM | –
O=C(C=Cc1c(F)c(F)c(F)c(F)c1F)NC(Cc1ccc(I)cc1)C(=O)NC1CCN(Cc2ccccc2)C1 (stereo not shown) [Analog M-1312, F5c-PIF-BapS] | 13 µM | 33% | – | –
O=C(C=Cc1c(F)c(F)c(F)c(F)c1F)NC(Cc1ccc(I)cc1)C(=O)N1CCN(CCCc2ccccc2)CC1 (stereo not shown) [Analog M-1308, F5c-PIF-Ppp] | 14 µM | – | – | –
O=C(C=Cc1c(F)c(F)c(F)c(F)c1F)NC(Cc1ccc(I)cc1)C(=O)N1CC2CC1CN2Cc1ccccc1 (stereo not shown) [Analog M-1280, F5c-PIF-Bdbh] | 20 µM | 40% | 10 µM | –
CC1(C)CC(NC(=O)C(Cc2ccc(OCc3c(Cl)cccc3Cl)cc2)NC(=O)c2ccc(NC(=N)N)cc2)CC(C)(C)N1 (stereo not shown) [Analog M-1390, Gbz-OC2Y-Atmp] | 4.3 µM | Stim. | > 40 µM | –
O=C(C=Cc1c(F)c(F)c(F)c(F)c1F)NC(Cc1ccc(I)cc1)C(=O)N1CCN(CC2CCCCC2)CC1 (stereo not shown) [Analog M-1314, F5c-PIF-Chmp] | 21 µM | – | – | –

SMILES | IC50 (NSCLC strain A-549) | PC3 In vivo % inhib. (PC3 PC cells) | IC50 (SCLC strain SHP-77; read-out: SCLC SHP-77 IC50) | IC50 (SCLC strain SHP-77; read-out: SHP-77 In vitro IC50)
C=CCN(CC=C)CCN1CCN(C(=O)C(Cc2ccc(I)cc2)NC(=O)C=Cc2c(F)c(F)c(F)c(F)c2F)CC1 (stereo not shown) [Analog M-1318, F5c-PIF-Daep] | 8.4 µM | – | – | –
CCCCCCCCN1CCN(C(=O)C(Cc2ccc(I)cc2)NC(=O)C=Cc2c(F)c(F)c(F)c(F)c2F)CC1 (stereo not shown) [Analog M-1330, F5c-PIF-Ocp] | 17 µM | 40% | – | –
O=C(C=Cc1c(F)c(F)c(F)c(F)c1F)NC(Cc1ccc(-c2ccccc2)cc1)C(=O)NC1CN2CCC1CC2 [Analog M-1288, F5c-Bip-(R)-(+)-Aqu] | 7.3 µM | – | 4.3 µM | –
O=C(C=Cc1c(F)c(F)c(F)c(F)c1F)NC(Cc1ccc(-c2ccccc2)cc1)C(=O)N1CC2CC1CN2c1ccc(F)cc1 (stereo not shown) [Analog M-1272, F5c-Bip-Fpdh] | 22 µM | 71% | 10 µM | –
O=C(C=Cc1c(F)c(F)c(F)c(F)c1F)NC(Cc1ccc(I)cc1)C(=O)NC1CCN(Cc2ccccc2)C1 (stereo not shown) [Analog M-1326, F5c-PIF-BapR] | 10 µM | 0.6% | – | –
O=C(C=Cc1c(F)c(F)c(F)c(F)c1F)NC(Cc1ccc(I)cc1)C(=O)NC1CN2CCC1CC2 [Analog M-1286, F5c-PIF-(R)-(+)-Aqu] | 9 µM | – | 4.3 µM | –
O=C(C=Cc1c(F)c(F)c(F)c(F)c1F)NC(Cc1ccc(-c2ccccc2)cc1)C(=O)NC1CN2CCC1CC2 [Analog M-1292, F5c-Bip-(S)-(−)-Aqu] | 9.8 µM | – | – | –
CC1(C)CC(NC(=O)[C@@H](Cc2ccc(OCc3c(Cl)cccc3Cl)cc2)NC(=O)/C=C/c2c(F)c(F)c(F)c(F)c2F)CC(C)(C)N1 [Analog M-1108, F5c-D-OC2Y-Atmp] | – | 46% | – | > 60 µM
CC1(C)CC(NC(=O)[C@H](Cc2ccc(OC(=O)OCc3ccccc3Br)cc2)NC(=O)/C=C/c2c(F)c(F)c(F)c(F)c2F)CC(C)(C)N1 [Analog M-1608, F5c-ObrZY-Atmp] | – | 29% | 10 µM | –
CC1(C)CC(NC(=O)[C@H](Cc2ccc(C#N)cc2)NC(=O)C23CC4CC(CC(C4)C2)C3)CC(C)(C)N1 [Analog M-1496, Aca-PCNF-Atmp] | – | 2% | > 60 µM | –
CC1(C)CC(NC(=O)C(Cc2ccc(OCc3c(Cl)cccc3Cl)cc2)NC(=O)C=CC(=O)c2ccccc2)CC(C)(C)N1 (stereo not shown) [Analog M-1576, Bzac-OC2Y-Atmp] | – | 57% | 6.2 µM | –
CC1(C)CC(NC(=O)C(Cc2ccc(OCc3c(Cl)cccc3Cl)cc2)NC(=O)CC2Cc3ccccc3C2)CC(C)(C)N1 (stereo not shown) [Analog M-1448, 2Ina-OC2Y-Atmp] | – | 11% | 13 µM | –
C=CCN1CCN(C(=O)C(Cc2ccc(I)cc2)NC(=O)C=Cc2c(F)c(F)c(F)c(F)c2F)CC1 (stereo not shown) [Analog M-1316, F5c-PIF-Alp] | 20 µM | – | – | –
CC1(C)CC(NC(=O)[C@H](Cc2ccc(OCc3c(Cl)cccc3Cl)cc2)NC(=O)CCP(=O)(O)O)CC(C)(C)N1 [Analog M-1616, 3Php-OC2Y-Atmp] | – | 18% | > 60 µM | –
CC1CN(C(=O)C(Cc2ccc(OCc3c(Cl)cccc3Cl)cc2)NC(=O)C=Cc2c(F)c(F)c(F)c(F)c2F)CC(C)N1Cc1ccccc1 (stereo not shown) [Analog M-1556, F5c-OC2Y-cDmbp] | – | 59% | 18 µM | –
Cc1ccc(CSC(C)(C)C(NC(=O)C23CC4CC(CC(C4)C2)C3)C(=O)NC2CC(C)(C)NC(C)(C)C2)cc1 (stereo not shown) [Analog M-1492, Aca-Pen(Mbzl)-Atmp] | – | 15% | 3.4 µM | –
Cc1ccc(CSC(C)(C)C(NC(=O)c2cnccn2)C(=O)NC2CC(C)(C)NC(C)(C)C2)cc1 (stereo not shown) [Analog M-1522, 2Pyz-Pen(Mbzl)-Atmp] | – | Stim. | 31 µM | –
O=C(C=Cc1c(F)c(F)c(F)c(F)c1F)NC(Cc1ccc(F)cc1)C(=O)NC1CCN(Cc2ccccc2)CC1 (stereo not shown) [Analog M-1156, F5c-PFF-Abzp] | – | 56% | – | 7.5 µM
CC1(C)CC(NC(=O)C(Cc2ccc(OCc3c(Cl)cccc3Cl)cc2)NC(=O)C=Cc2ccc3c(c2)OCO3)CC(C)(C)N1 (stereo not shown) [Analog M-1414, 34Mdc-OC2Y-Atmp] | – | Stim. | 7.1 µM | –
CC1(C)CC(NC(=O)[C@H](Cc2ccc(C#N)cc2)NC(=O)C(C)(c2ccccc2)c2ccccc2)CC(C)(C)N1 [Analog M-1512, 22Dp-PCNF-Atmp] | – | 48% | 22 µM | –
